Converted amounts (≈) assume the structure as drawn. The source made the active and inactive calls. The calls are words filed in the database; no cut-off is given here.
Key:
Escherichia coli [1] = assay: Anti-bacterial activity against Escherichia coli ATCC 25922 assessed as growth inhibition by measuring optical density measured at 1 time of MIC in presence of 2 times of MIC of norfloxacin by Checkerboard assay (reference value: 0.125); format: functional
Escherichia coli [2] = assay: Anti-bacterial activity against Escherichia coli ATCC 25922 assessed as growth inhibition by measuring optical density measured at 4 time of MIC in presence of 1/2 times of MIC of norfloxacin by Checkerboard assay (reference value: 0.125); format: functional
Acinetobacter baumannii [3] = assay: Induction of membrane depolarization Acinetobacter baumannii assessed as increase in red fluorescence intensity at 0.5 to 8 times of MIC concentration measured after 6 hrs by […] assay; format: functional, organism-based
Acinetobacter baumannii [4] = assay: Antibiofilm activity against Acinetobacter baumannii assessed as inhibition rate of bio-film formation at 8 times of MIC concentration by Crystal violet assay relative to control; format: functional
Escherichia coli [5] = assay: Reduction of biofilm virulent factors in Escherichia coli ATCC 25922 assessed as decrease in extracellular polymeric substances (EPS) at 1/2 times of MIC concentration by congo red binding assay relative to control; format: functional; set-up: scale not given: the % may be the effect or the level left
Acinetobacter baumannii [6] = assay: Anti-bacterial activity against Acinetobacter baumannii assessed as bacterial mortality at 1 to 4 MIC concentration by propidium iodide based fluorescence microscopy relative to control; format: functional, organism-based
Escherichia coli [7] = assay: Anti-bacterial activity against Escherichia coli ATCC 25922 assessed as growth inhibition by measuring optical density measured at 1/4 time of MIC in presence of 1/4 times of MIC of norfloxacin by Checkerboard assay (reference value: 0.128); format: functional
Calf thymus DNA = assay: Binding affinity to calf thymus DNA assessed as compound/DNA binary complex by measuring increase in absorption at 260 nm by UV-vis/fluorescence spectroscopy; format: nucleic-acid assay; settings: Bos taurus
Escherichia coli [8] = assay: Anti-bacterial activity against Escherichia coli ATCC 25922 assessed as growth inhibition by measuring optical density measured at 2 time of MIC in presence of 1/8 times of MIC of norfloxacin by Checkerboard assay (reference value: 0.128); format: functional
Escherichia coli [9] = assay: Induction of membrane disturbance in Escherichia coli ATCC 25922 assessed as increase in fluorescence intensity at 0.5 to 8 times of MIC concentration measured after 90 mins by Propidium iodide assay; format: functional, organism-based
Escherichia coli [10] = assay: Anti-bacterial activity against Escherichia coli ATCC 25922 assessed as bacterial mortality at 1 to 4 MIC concentration by propidium iodide based fluorescence microscopy relative to control; format: functional, organism-based
Acinetobacter baumannii [11] = assay: Anti-bacterial activity against Acinetobacter baumannii assessed as growth inhibition by measuring optical density measured at 4 time of MIC in presence of 1 times of MIC of norfloxacin by Checkerboard assay (reference value: 0.152); format: functional
Escherichia coli [12] = assay: Anti-bacterial activity against Escherichia coli ATCC 25922 assessed as growth inhibition by measuring optical density measured at 4 time of MIC in presence of 1/8 times of MIC of norfloxacin by Checkerboard assay (reference value: 0.125); format: functional
Acinetobacter baumannii [13] = assay: Anti-bacterial activity against Acinetobacter baumannii assessed as growth inhibition by measuring optical density measured at 4 time of MIC in presence of 1/4 times of MIC of norfloxacin by Checkerboard assay (reference value: 0.152); format: functional
Acinetobacter baumannii [14] = assay: Anti-bacterial activity against Acinetobacter baumannii assessed as growth inhibition by measuring optical density measured at 1 time of MIC in presence of 1/4 times of MIC of norfloxacin by Checkerboard assay (reference value: 0.157); format: functional
Acinetobacter baumannii [15] = assay: Anti-bacterial activity against Acinetobacter baumannii assessed as growth inhibition by measuring optical density measured at 1 time of MIC in presence of 2 times of MIC of norfloxacin by Checkerboard assay (reference value: 0.157); format: functional
Escherichia coli [16] = assay: Anti-bacterial activity against Escherichia coli ATCC 25922 assessed as growth inhibition by measuring optical density measured at 1/2 time of MIC in presence of 1/4 times of MIC of norfloxacin by Checkerboard assay (reference value: 0.124); format: functional
Acinetobacter baumannii [17] = assay: Induction of intracellular ROS accumulation in Acinetobacter baumannii assessed as larger green fluorescence densities at 1/4 to 2 times of MIC by microscopic imaging assay; format: functional, organism-based
Acinetobacter baumannii [18] = assay: Anti-bacterial activity against Acinetobacter baumannii assessed as inhibition of bacterial growth measured upto 9 hrs; format: functional, organism-based
Escherichia coli [19] = assay: Antibiofilm activity against Escherichia coli ATCC 25922 assessed as clearance rate of mature biofilm at MIC concentration relative to control; format: functional
Cell membrane [20] = assay: Induction of membrane damage in Escherichia coli ATCC 25922 assessed as increase in fluorescence intensity at 1 to 4 times of MIC concentration measured after 90 mins by DiSC3 fluorescent probe assay; format: cell membranes
Acinetobacter baumannii [21] = assay: Anti-bacterial activity against Acinetobacter baumannii assessed as growth inhibition by measuring optical density measured at 1/2 time of MIC in presence of 1 times of MIC of norfloxacin by Checkerboard assay (reference value: 0.152); format: functional
Acinetobacter baumannii [22] = assay: Antibiofilm activity against Acinetobacter baumannii assessed as inhibition rate of bio-film formation at 8 times of MIC concentration in presence of sodium dodecyl sulfate by Crystal violet assay relative to control; format: functional, organism-based
Cell membrane [23] = assay: Induction of membrane damage in Acinetobacter baumannii assessed as increase in fluorescence intensity at 1 to 4 times of MIC concentration measured after 90 mins by DiSC3 fluorescent probe assay; format: cell membranes
Acinetobacter baumannii [24] = assay: Anti-bacterial activity against Acinetobacter baumannii assessed as fractional inhibitory concentration index measured upto 9 hrs in presence of norfloxacin; format: functional
Escherichia coli [25] = assay: Anti-bacterial activity against Escherichia coli ATCC 25922 assessed as growth inhibition by measuring optical density measured at 1 time of MIC in presence of 1 times of MIC of norfloxacin by Checkerboard assay (reference value: 0.125); format: functional
Escherichia coli [26] = assay: Antibiofilm activity against Escherichia coli ATCC 25922 assessed as inhibition rate of bio-film formation at 0.5 times of MIC concentration by Crystal violet assay relative to control; format: functional
Staphylococcus aureus = assay: Anti-bacterial activity against methicillin-resistant Staphylococcus aureus N315 assessed as inhibition of bacterial growth; format: functional; settings: Staphylococcus aureus, N315; read-out: MIC
Escherichia coli [27] = assay: Induction of ROS accumulation in Escherichia coli ATCC 25922 assessed as decrease in GSH activity by measuring reduced GSH to convert to oxidized GSSG at 1/4 to 2 times of MIC by Ellmans metho; format: functional, organism-based
Acinetobacter baumannii [28] = assay: Reduction in metabolic activity of Acinetobacter baumannii at 2 times of MIC concentration relative to control; format: functional; set-up: scale not given: the % may be the effect or the level left
Acinetobacter baumannii [29] = assay: Anti-bacterial activity against Acinetobacter baumannii assessed as growth inhibition by measuring optical density measured at 1 time of MIC in presence of 1 times of MIC of norfloxacin by Checkerboard assay (reference value: 0.157); format: functional
Escherichia coli [30] = assay: Anti-bacterial activity against Escherichia coli ATCC 25922 assessed as growth inhibition by measuring optical density measured at 1/4 time of MIC in presence of 2 times of MIC of norfloxacin by Checkerboard assay (reference value: 0.128); format: functional

With `CCCCc1nc(Cl)c(C2NC(=O)NC(CN3CCN(C(=O)/C(=N/OC)c4csc(N)n4)CC3)=C2C(=O)OCC)[nH]1` (configuration not stated) the OD (Escherichia coli [1]) was 0.051, the OD (Escherichia coli [2]) was 0.052 and the Activity (Acinetobacter baumannii [3]) was “Active”. The “inhibition (INH)” value (Acinetobacter baumannii [4]) was over 70.2%, the Activity (Escherichia coli [5]) was 64.4% and the Activity (Acinetobacter baumannii [6]) was “Active”. For the same compound, the OD (Escherichia coli [7]) was 0.127, the Activity (Calf thymus DNA) was “Active” and the OD (Escherichia coli [8]) was 0.122. For the same compound, the Activity (Escherichia coli [9]) was “Active”, the Activity (Escherichia coli [10]) was “Active” and the OD (Acinetobacter baumannii [11]) was 0.051. The OD (Escherichia coli [12]) was 0.108, the OD (Acinetobacter baumannii [13]) was 0.051 and the OD (Acinetobacter baumannii [14]) was 0.109. For the same compound, the OD (Acinetobacter baumannii [15]) was 0.053, the OD (Escherichia coli [16]) was 0.118 and the Activity (Acinetobacter baumannii [17]) was “Active”. For the same compound, the Activity (Acinetobacter baumannii [18]) was “Dose-Dependent Effect”, the Activity (Escherichia coli [19]) was 37.7% and the Activity (Cell membrane [20]) was “inactive”. The OD (Acinetobacter baumannii [21]) was 0.109, the Activity (Acinetobacter baumannii [22]) was “Active” and the Activity (Cell membrane [23]) was “inactive”. For the same compound, the “fractional inhibitory concentration index (FICI)” value (Acinetobacter baumannii [24]) was 0.75, the OD (Escherichia coli [25]) was 0.056 and the “inhibition (INH)” value (Escherichia coli [26]) was 28.3%. The MIC (Staphylococcus aureus) was 26 µM (≈ 15.8 µg/mL), the Activity (Escherichia coli [27]) was “Active” and the Activity (Acinetobacter baumannii [28]) was 66.3%. For the same compound, the OD (Acinetobacter baumannii [29]) was 0.052 and the OD (Escherichia coli [30]) was 0.078.

— ChEMBL document CHEMBL5505979, “Novel aminothiazoximone-corbelled ethoxycarbonylpyrimidones with antibiofilm activity to conquer Gram-negative bacteria through potential multitargeting effects” (Eur J Med Chem, 2024)
